Strand notation (5' to 3'): a small letter for the sugar, then the base; units joined by * are phosphorothioate-linked, units joined directly phosphodiester-linked; [ ] holds rarer units or linkages, { } end groups; capitals alone tell only the bases. e = 2'-O-(2-methoxyethyl) (MOE); l = locked nucleic acid (LNA); [5mC] = 5-methylcytosine; d = 2'-deoxy (DNA)

The subject of the data set is human ABCB11 mRNA. The experiment in a line: ASO treatment of primary human hepatocytes (PHH), ABCB11 mRNA by RT-qPCR normalized to B2M. It counts as cell-based. To be noted: primary human hepatocytes, 5 μM ASO, normalized to untreated PHHs (UNT). The procedure, abridged: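 Plated primary human hepatocytes were treated 4 h post-thaw with ASO (e.g., 1.25–10 μM; initial screen 5 μM) in medium containing 0.3 mg/ml Matrigel for 72 hrs. Total RNA was reverse-transcribed and ABCB11 mRNA measured by Taqman RT-qPCR, normalized to B2M, with fold change versus untreated PHHs.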
On the technique in general: Real-time PCR tracks product formation cycle by cycle.
In the case of “CO-6674 (antisense eT*eG*eG*eA*eA*eG*eG*eA*e[5mC]*eA*e[5mC]*eA*eA*eT*eT*eT*e[5mC]*eT*eG*eT)”, the “ABCB11 mRNA FC (5 μM ASO vs. UNT)” value is on record as 1.175 fold change.
As for “CO-6675 (antisense eA*eG*e[5mC]*eA*eA*eG*e[5mC]*eT*eG*eT*eG*eT*eG*eG*eA*eA*eG*eG*eA*e[5mC])”, the “ABCB11 mRNA FC (5 μM ASO vs. UNT)” value came to 1.346 fold change.
As to “CO-6676 (antisense eT*eA*eA*eA*eG*e[5mC]*eA*eA*eG*e[5mC]*eT*eG*eT*eG*eT*eG*eG*eA*eA*eG)”, the “ABCB11 mRNA FC (5 μM ASO vs. UNT)” value is given as 1.204 fold change.
Consider “CO-6966 (antisense eA*eT*eG*eA*eA*eT*eG*eG*e[5mC]*eA*eA*eG*eG*eA*eG*eA*eG*eG*eA*eT)”, for which the “ABCB11 mRNA FC (5 μM ASO vs. UNT)” value came to 1.177 fold change.
As to “CO-6967 (antisense eG*eA*eT*eG*eT*eA*eG*eA*eT*eG*eA*eA*eT*eG*eG*e[5mC]*eA*eA*eG*eG)”, the “ABCB11 mRNA FC (5 μM ASO vs. UNT)” value is 1.405 fold change.
On to “CO-6968 (antisense eT*eG*eG*eA*eT*dG*dT*dA*dG*dA*dT*dG*dA*dA*dT*eG*eG*e[5mC]*eA*eA)”, for which the “ABCB11 mRNA FC (5 μM ASO vs. UNT)” value came to 1.373 fold change.
As to “CO-6969 (antisense eT*eG*eT*eG*eG*eA*eT*eG*eT*eA*eG*eA*eT*eG*eA*eA*eT*eG*eG*e[5mC])”, the “ABCB11 mRNA FC (5 μM ASO vs. UNT)” value was 1.266 fold change.
For “CO-6971 (antisense eA*eT*eG*eG*eG*eT*eG*eT*eG*eG*eA*eT*eG*eT*eA*eG*eA*eT*eG*eA)”, the “ABCB11 mRNA FC (5 μM ASO vs. UNT)” value was found to be 1.091 fold change.
With “CO-6972 (antisense eA*eA*eA*eT*eG*eG*eG*eT*eG*eT*eG*eG*eA*eT*eG*eT*eA*eG*eA*eT)” the figure was 1.207 fold change; with “CO-6973 (antisense eA*eA*eA*eA*eA*eT*eG*eGeGeT*eGeT*eG*eG*eA*eT*eG*eT*eA*eG)”, 1.325 fold change.
Turning to “CO-6974 (antisense eT*eG*eG*eG*eA*eA*eG*eT*eT*eT*eA*eA*eA*eA*eA*eA*eT*eG*eG*eG)”, the “ABCB11 mRNA FC (5 μM ASO vs. UNT)” value came out at 1.394 fold change.
Turning to “CO-6975 (antisense e[5mC]*eT*eG*eA*eA*eG*eT*eG*eG*eA*eG*eG*eT*eG*eG*eT*eG*eG*eA*eA)”, the “ABCB11 mRNA FC (5 μM ASO vs. UNT)” value stood at 1.34 fold change.
With “CO-6976 (antisense eT*e[5mC]*e[5mC]*eT*eG*eA*eA*eG*eT*eG*eG*eA*eG*eG*eT*eG*eG*eT*eG*eG)”, the “ABCB11 mRNA FC (5 μM ASO vs. UNT)” value is 1.373 fold change.
For the substance “CO-6977 (antisense eG*eG*eT*eA*eA*eG*eT*eT*e[5mC]*e[5mC]*eT*eG*eA*eA*eG*eT*eG*eG*eA*eG)”, the “ABCB11 mRNA FC (5 μM ASO vs. UNT)” value turned out to be 1.15 fold change.
As for “CO-6978 (antisense eG*eA*eG*eG*e[5mC]*eA*eT*e[5mC]*eA*eG*eG*eT*eA*eA*eG*eT*eT*e[5mC]*e[5mC]*eT)”, the “ABCB11 mRNA FC (5 μM ASO vs. UNT)” value came out at 1.456 fold change.
The result for “CO-6979 (antisense eG*eT*eG*eA*eG*dG*d[5mC]*dA*dT*d[5mC]*dA*dG*dG*dT*dA*eA*eG*eT*eT*e[5mC])” reads 1.201 fold change; that for “CO-6981 (antisense eA*e[5mC]*eA*eG*eA*eA*eG*eT*eG*eA*eG*eG*e[5mC]*eA*eT*e[5mC]*eA*eG*eG*eT)”, 1.164 fold change.
“CO-6982 (antisense eA*eA*eG*eA*e[5mC]*eA*eG*eA*eA*eG*eT*eG*eA*eG*eG*e[5mC]*eA*eT*e[5mC]*eA)”: the “ABCB11 mRNA FC (5 μM ASO vs. UNT)” value was determined as 0.976 fold change.
As for “CO-6983 (antisense eA*eG*eA*eA*eG*eA*e[5mC]*eA*eG*eA*eA*eG*eT*eG*eA*eG*eG*e[5mC]*eA*eT)”, the “ABCB11 mRNA FC (5 μM ASO vs. UNT)” value came out at 1.065 fold change.
The result for “CO-6984 (antisense eT*eG*eA*eG*eG*eT*e[5mC]*eT*eA*eA*eT*eT*eT*eA*eG*eA*eA*eG*eA*e[5mC])” reads 1.127 fold change.
The result for “CO-6985 (antisense eT*eG*eG*eA*eT*lG*dT*dA*lG*dA*dT*lG*dA*dA*lT*eG*eG*e[5mC]*eA*eA)” reads 1.414 fold change.
With “CO-6986 (antisense eT*eG*eG*lA*eT*dG*dT*lA*dG*dA*dT*lG*dA*dA*dT*lG*eG*e[5mC]*eA*eA)” the figure was 0.998 fold change; with “CO-6987 (antisense eT*eG*eG*eA*lT*dG*dT*dA*lG*dA*dT*dG*lA*dA*dT*eG*lG*e[5mC]*eA*eA)”, 1.026 fold change; with “CO-6988 (antisense eT*eG*eG*lA*eT*lG*eT*lA*eG*lA*eT*lG*eA*lA*eT*lG*eG*l[5mC]*eA*eA)”, 1.093 fold change.
Take “CO-6989 (antisense eT*eG*lG*eA*lT*eG*lT*eA*lG*eA*lT*eG*lA*eA*lT*eG*lG*e[5mC]*eA*eA)”: the “ABCB11 mRNA FC (5 μM ASO vs. UNT)” value worked out at 1.469 fold change.
“CO-6990 (antisense eT*eG*lG*eA*eT*lG*eT*eA*lG*eA*eT*lG*eA*eA*lT*eG*eG*l[5mC]*eA*eA)”: the “ABCB11 mRNA FC (5 μM ASO vs. UNT)” value was determined as 1.16 fold change.
As for “CO-6991 (antisense eT*eG*eG*eA*lT*eG*eT*eA*lG*eA*eT*eG*lA*eA*eT*eG*lG*e[5mC]*eA*eA)”, the “ABCB11 mRNA FC (5 μM ASO vs. UNT)” value stood at 1.193 fold change.
As to “CO-6992 (antisense eT*eG*eG*lA*eT*eGeT*lA*eG*eA*eT*lG*eA*eA*eT*lG*eG*e[5mC]*eA*eA)”, the “ABCB11 mRNA FC (5 μM ASO vs. UNT)” value worked out at 0.992 fold change.
For the substance “CO-6993 (antisense eT*eG*eG*eA*eT*lG*eT*eA*eG*eA*lT*eG*eA*eA*eT*lG*eG*e[5mC]*eA*eA)”, the “ABCB11 mRNA FC (5 μM ASO vs. UNT)” value is 1.209 fold change.
Turning to “CO-6994 (antisense eT*eG*eG*eA*lT*eG*eT*eA*eG*lA*eT*eG*eA*eA*lT*eG*eG*e[5mC]*eA*eA)”, the “ABCB11 mRNA FC (5 μM ASO vs. UNT)” value amounted to 1.131 fold change.
Consider “CO-6995 (antisense eG*eT*eG*eA*eG*lG*d[5mC]*dA*lT*d[5mC]*dA*lG*dG*dT*lA*eA*eG*eT*eT*e[5mC])”, for which the “ABCB11 mRNA FC (5 μM ASO vs. UNT)” value is 1.277 fold change.
For “CO-6996 (antisense eG*eT*eG*lA*eG*dG*d[5mC]*lA*dT*d[5mC]*dA*lG*dG*dT*dA*lA*eG*eT*eT*e[5mC])”, the “ABCB11 mRNA FC (5 μM ASO vs. UNT)” value is 1.314 fold change.
As for “CO-6997 (antisense eG*eT*eG*eA*lG*dG*d[5mC]*dA*lT*d[5mC]*dA*dG*lG*dT*dA*eA*lG*eT*eT*e[5mC])”, the “ABCB11 mRNA FC (5 μM ASO vs. UNT)” value stood at 1.058 fold change.
On to “CO-6998 (antisense eG*eT*eG*lA*eG*lG*e[5mC]*lA*eT*l[5mC]*eA*lGeG*lT*eA*lA*eG*lT*eT*e[5mC])”, for which the “ABCB11 mRNA FC (5 μM ASO vs. UNT)” value was 1.246 fold change.
With “CO-6999 (antisense eG*eT*lG*eA*lG*eG*l[5mC]*eA*lT*e[5mC]*lA*eG*lGeT*lA*eA*lG*eT*eT*e[5mC])” the figure was 1.24 fold change.
On to “CO-7000 (antisense eG*eT*lG*eA*eG*lG*e[5mC]*eA*lT*e[5mC]*eA*lG*eG*eT*lA*eA*eG*lT*eT*e[5mC])”, for which the “ABCB11 mRNA FC (5 μM ASO vs. UNT)” value amounted to 1.203 fold change.
For “CO-7001 (antisense eG*eT*eG*eA*lG*eG*e[5mC]*eA*lT*e[5mC]*eA*eG*lGeT*eA*eA*lG*eT*eT*e[5mC])”, the “ABCB11 mRNA FC (5 μM ASO vs. UNT)” value is 1.237 fold change.
Turning to “CO-7002 (antisense eG*eT*eG*lA*eG*eG*e[5mC]*lA*eT*e[5mC]*eA*lG*eG*eT*eA*lA*eG*eT*eT*e[5mC])”, the “ABCB11 mRNA FC (5 μM ASO vs. UNT)” value turned out to be 1.367 fold change.

These data come from patent US20250320496A1, “MODULATION OF ABCB11 GENE TRANSCRIPTION USING ANTISENSE OLIGONUCLEOTIDES TARGETING REGULATORY RNAS” (CAMP4 Therapeutics Corporation, priority 2022, published 2025).
